Results: article PMC5363373, “Zirconium tetraazamacrocycle complexes display extraordinary stability and provide a new strategy for zirconium-89-based radiopharmaceutical development” (Chemical Science, 2016)

Key:
[1] = In vitro EDTA challenge study; format: physicochemical
Summary of the method: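 Each 89Zr-labeled complex incubated at 37 °C for up to 7 days with EDTA (10, 50 or 100 mM; pH 5 or 7) at 1:100, 1:500 and 1:1000 ligand/EDTA ratios, n=4. Intact fraction sampled from 30 min to 7 d by radio-TLC (0.1 M EDTA pH 5 mobile phase) and gamma counting.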

[2] = In vitro metal competition study; format: physicochemical; conditions: PBS pH 7.4, 37 C
Summary of the method: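 Each 89Zr-labeled complex (0.1 mM stock) in PBS, pH 7.4, was mixed with 1 mM solutions of Fe(III), Co(II), Zn(II), Cu(II), Mg(II), Ga(III) or Gd(III) salts. Mixtures were incubated at 37 °C for 7 days. 89Zr release was tracked by radio-TLC at 2 h, 1 d, 4 d and 7 d, in triplicate.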

[3] = In vitro serum stability (radio-ITLC); format: in vitro ADME; conditions: 37 C, after 7 days
Summary of the method: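 89Zr-labeled complexes (70 μCi, 2.59 MBq) incubated in human serum at 37 °C for 7 days (n=4). Analyzed daily by radio-ITLC on ITLC-SA strips with 0.1 M EDTA (pH 5) mobile phase and gamma counting; SEC in PBS after 7 days.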

[4] = Biodistribution studies; format: in vivo, female NIH Swiss mice; conditions: mice, intravenous, 72 h post-injection
Summary of the method: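 Female NIH Swiss mice (6-8 wk, n=6) received 89Zr-labeled complex, 0.55 MBq (15 μCi)/mouse i.v. via tail vein; organs excised at 2, 4, 24, 48, 72 h, weighed and gamma-counted. %ID/g and %ID/organ derived against a weighed, counted standard; mean±SD, two-tailed unpaired t test.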

O=P1(O)CN2CCN3CCN4CCN(CC2)CP(=O)(O)[O][89Zr]([O]1)([O]P(=O)(O)C3)[O]P(=O)(O)C4 [89Zr-DOTP]
% Intact of 89Zr-complexes ([1]; EDTA 100-fold, pH 5.0, 37 C, 1 h): 98.6 ± 0.3% | % Intact of 89Zr-complexes ([1]; EDTA 100-fold, pH 5.0, 37 C, 1 d): 91.8 ± 0.9% | % Intact of 89Zr-complexes ([1]; EDTA 100-fold, pH 5.0, 37 C, 3 d): 84.3 ± 0.7% | % Intact of 89Zr-complexes ([1]; EDTA 100-fold, pH 5.0, 37 C, 5 d): 78.6 ± 1.0% | % Intact of 89Zr-complexes ([1]; EDTA 100-fold, pH 5.0, 37 C, 7 d): 56.5 ± 1.4% | % Intact of 89Zr-complexes ([1]; EDTA 100-fold, pH 7.0, 37 C, 1 h): 99.8 ± 0.1% | % Intact of 89Zr-complexes ([1]; EDTA 100-fold, pH 7.0, 37 C, 1 d): 98.6 ± 0.1% | % Intact of 89Zr-complexes ([1]; EDTA 100-fold, pH 7.0, 37 C, 3 d): 96.8 ± 0.3% | % Intact of 89Zr-complexes ([1]; EDTA 100-fold, pH 7.0, 37 C, 5 d): 94.5 ± 0.5% | % Intact of 89Zr-complexes ([1]; EDTA 100-fold, pH 7.0, 37 C, 7 d): 92.5 ± 0.4% | % Intact of 89Zr-complexes ([1]; EDTA 500-fold, pH 5.0, 37 C, 1 h): 97.4 ± 0.4% | % Intact of 89Zr-complexes ([1]; EDTA 500-fold, pH 5.0, 37 C, 1 d): 89.4 ± 0.7% | % Intact of 89Zr-complexes ([1]; EDTA 500-fold, pH 5.0, 37 C, 3 d): 72.4 ± 1.4% | % Intact of 89Zr-complexes ([1]; EDTA 500-fold, pH 5.0, 37 C, 5 d): 66.7 ± 0.7% | % Intact of 89Zr-complexes ([1]; EDTA 500-fold, pH 5.0, 37 C, 7 d): 53.8 ± 0.8% | % Intact of 89Zr-complexes ([1]; EDTA 500-fold, pH 7.0, 37 C, 1 h): 99.5 ± 0.3% | % Intact of 89Zr-complexes ([1]; EDTA 500-fold, pH 7.0, 37 C, 1 d): 98.2 ± 0.1% | % Intact of 89Zr-complexes ([1]; EDTA 500-fold, pH 7.0, 37 C, 3 d): 94.9 ± 1.1% | % Intact of 89Zr-complexes ([1]; EDTA 500-fold, pH 7.0, 37 C, 5 d): 91.4 ± 0.3% | % Intact of 89Zr-complexes ([1]; EDTA 500-fold, pH 7.0, 37 C, 7 d): 89.3 ± 0.6% | % Intact of 89Zr-complexes ([1]; EDTA 1000-fold, pH 5.0, 37 C, 1 h): 96.3 ± 0.5% | % Intact of 89Zr-complexes ([1]; EDTA 1000-fold, pH 5.0, 37 C, 1 d): 87.3 ± 1.2% | % Intact of 89Zr-complexes ([1]; EDTA 1000-fold, pH 5.0, 37 C, 3 d): 67.5 ± 1.1% | % Intact of 89Zr-complexes ([1]; EDTA 1000-fold, pH 5.0, 37 C, 5 d): 58.9 ± 1.4% | % Intact of 89Zr-complexes ([1]; EDTA 1000-fold, pH 5.0, 37 C, 7 d): 43.7 ± 1.1% | % Intact of 89Zr-complexes ([1]; EDTA 1000-fold, pH 7.0, 37 C, 1 h): 99.2 ± 0.1% | % Intact of 89Zr-complexes ([1]; EDTA 1000-fold, pH 7.0, 37 C, 1 d): 97.9 ± 0.1% | % Intact of 89Zr-complexes ([1]; EDTA 1000-fold, pH 7.0, 37 C, 3 d): 91.5 ± 0.6% | % Intact of 89Zr-complexes ([1]; EDTA 1000-fold, pH 7.0, 37 C, 5 d): 84.9 ± 0.6% | % Intact of 89Zr-complexes ([1]; EDTA 1000-fold, pH 7.0, 37 C, 7 d): 79.4 ± 1.2% | % Intact of 89Zr-complexes ([2]; Co2+, 2 h): 99.1 ± 0.2% | % Intact of 89Zr-complexes ([2]; Co2+, 1 d): 97.2 ± 0.1% | % Intact of 89Zr-complexes ([2]; Co2+, 4 d): 95.3 ± 0.5% | % Intact of 89Zr-complexes ([2]; Co2+, 7 d): 93.5 ± 1.3% | % Intact of 89Zr-complexes ([2]; Cu2+, 2 h): 98.4 ± 0.1% | % Intact of 89Zr-complexes ([2]; Cu2+, 1 d): 95.4 ± 0.2% | % Intact of 89Zr-complexes ([2]; Cu2+, 4 d): 97.5 ± 0.7% | % Intact of 89Zr-complexes ([2]; Cu2+, 7 d): 94.4 ± 1.3% | % Intact of 89Zr-complexes ([2]; Fe3+, 2 h): 99.3 ± 0.1% | % Intact of 89Zr-complexes ([2]; Fe3+, 1 d): 96.8 ± 1.2% | % Intact of 89Zr-complexes ([2]; Fe3+, 4 d): 89.5 ± 0.7% | % Intact of 89Zr-complexes ([2]; Fe3+, 7 d): 84.0 ± 0.4% | % Intact of 89Zr-complexes ([2]; Ga3+, 2 h): 99.2 ± 0.1% | % Intact of 89Zr-complexes ([2]; Ga3+, 1 d): 98.2 ± 0.2% | % Intact of 89Zr-complexes ([2]; Ga3+, 4 d): 93.6 ± 0.6% | % Intact of 89Zr-complexes ([2]; Ga3+, 7 d): 91.1 ± 1.4% | % Intact of 89Zr-complexes ([2]; Gd3+, 2 h): 99.5 ± 0.4% | % Intact of 89Zr-complexes ([2]; Gd3+, 1 d): 97.9 ± 0.4% | % Intact of 89Zr-complexes ([2]; Gd3+, 4 d): 93.2 ± 1.0% | % Intact of 89Zr-complexes ([2]; Gd3+, 7 d): 91.7 ± 2.0% | % Intact of 89Zr-complexes ([2]; Mg2+, 2 h): 99.2 ± 0.2% | % Intact of 89Zr-complexes ([2]; Mg2+, 1 d): 99.4 ± 0.1% | % Intact of 89Zr-complexes ([2]; Mg2+, 4 d): 98.1 ± 0.1% | % Intact of 89Zr-complexes ([2]; Mg2+, 7 d): 96.3 ± 0.4% | % Intact of 89Zr-complexes ([2]; Zn2+, 2 h): 99.0 ± 0.1% | % Intact of 89Zr-complexes ([2]; Zn2+, 1 d): 95.4 ± 0.3% | % Intact of 89Zr-complexes ([2]; Zn2+, 4 d): 89.4 ± 1.5% | % Intact of 89Zr-complexes ([2]; Zn2+, 7 d): 84.7 ± 2.7% | Radio-ITLC peak of complex in human serum [3]: 95.2% | Radioactivity in blood [4]: 0.0005 ± 0.001 % ID per g | Radioactivity in bone [4]: 2.63 ± 0.12 % ID per g | Radioactivity in kidney [4]: 0.32 ± 0.045 % ID per g | Radioactivity in liver [4]: 0.036 ± 0.002 % ID per g
